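Protocol summary: plate cells (96-well), add compound at 5 concentrations, incubate 48 h, interpolate endpoints linearly. GI50 = concentration required for 50% inhibition of growth. Definition used: TGI = concentration required for complete inhibition of growth.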
Assays:
Test in all cases: NCI tumour cell line growth inhibition, 48 h
HT29 colon = tested on: HT29 colon
COLO 205 colon = tested on: COLO 205 colon
MCF7 breast = tested on: MCF7 breast
HCT-15 colon = tested on: HCT-15 colon
SN12C renal = tested on: SN12C renal
NCI-H23 lung = tested on: NCI-H23 lung
TK-10 renal = tested on: TK-10 renal
K-562 leukemia = tested on: K-562 leukemia
UACC-257 melanoma = tested on: UACC-257 melanoma
U251 CNS = tested on: U251 CNS

Structure (SMILES) | GI50 (HT29 colon) [nM] | TGI (HT29 colon) [µM] | GI50 (COLO 205 colon) [nM] | TGI (COLO 205 colon) [µM] | GI50 (MCF7 breast) [nM] | TGI (MCF7 breast) [µM] | GI50 (HCT-15 colon) [nM] | TGI (HCT-15 colon) [µM] | GI50 (SN12C renal) [nM] | TGI (SN12C renal) [µM] | GI50 (NCI-H23 lung) [nM] | TGI (NCI-H23 lung) [µM] | GI50 (TK-10 renal) [nM] | TGI (TK-10 renal) [µM] | GI50 (K-562 leukemia) [nM] | TGI (K-562 leukemia) [µM] | GI50 (UACC-257 melanoma) [nM] | TGI (UACC-257 melanoma) [µM] | GI50 (U251 CNS) [nM] | TGI (U251 CNS) [µM]
C=CCN1CC(=O)N2[C@@H](Cc3ccc(O)cc3F)C(=O)N(Cc3cccc(N4CC(N5CCN(CC)CC5)C4)n3)C[C@@H]2N1C(=O)NCc1ccccc1 | 53.7 | 16.2 | 28 | 0.262 | 524 | > 100 | 449 | > 20.9 | 111 | > 100 | 75.6 | > 100 | 160 | > 100 | 39.7 | > 100 | 64.8 | 12.9 | 31.9 | > 100
COC(=O)CCCCC(=O)c1c(C)[nH]c(/C=C2\N=C(c3ccc[nH]3)C=C2OC)c1C | 198 | 1.41 | 1640 | 3.29 | 723 | 2.09 | 359 | 1.4 | 1100 | 2.47 | 1460 | 3.6 | 2060 | 6.38 | 403 | 1.77 | 1730 | 3.33 | 868 | 2.15
OCCNC1c2cc(Cl)ccc2-c2c(Cl)cc(Cl)cc21 (stereo not given) |  | > 100 |  | > 100 |  | 53.8 |  | > 100 |  | 86.3 |  | > 100 |  | > 100 |  | > 100 |  | > 100 |  | > 100
COC1C(O)C(CO)OC(OC2C(O)COC(OC3C(C)OC(OC4C(O[C@H]5CC[C@@]6(C)C(CC=C7[C@H]6CCC68C(=O)O[C@@](C)(CCCC(C)C)[C@H]6[C@@H](OC(C)=O)C[C@@]78C)C5(C)C)OCC(OS(=O)(=O)O)C4O)C(OC4OCC(O)C(O)C4O)C3O)C2O)C1O (stereo not given in full) | 79.5 | 0.221 | 73.8 | 0.286 | 166 | 0.431 | 177 | 0.454 | 110 | 0.3 | 113 | 0.287 | 333 | 0.855 | 92.3 | 0.242 | 1510 | 3.54 | 120 | 0.272
COC(=O)c1cncc(/C=C/c2c(C)cc(O)cc2C)c1 | > 15400 | > 25 | > 22400 | > 25 | 11500 | > 18.7 | 11100 | > 25 | 11200 | > 25 | 10500 | > 25 | > 25000 | > 25 | 2320 | > 19 | 14600 | > 25 | > 16700 | > 25
CN(CCNCc1ccccn1)CCNCc1ccccn1 | 2790 | 7.86 | 2530 | 6.02 | 3080 | 10.9 | 2960 | 12.6 | 4330 | 17.2 | 3550 | > 100 | 2190 | 6.94 | 3580 | > 100 | 1970 | 3.85 | 3480 | 12
